Calls of active or inactive are those of the source. The calls are words filed in the database; no cut-off is given here.

The IC50 is the concentration that inhibits the measured activity by half.

Common to all, as to format: protein-complex assay
The target in assay [1] is T1, DNA gyrase (Escherichia coli) (UniProt P0AES6+P0AES4). Kind of assay: Inhibition of wild type Escherichia coli DNA gyrase subunit A2B2 using supercoiled pBR322 DNA as substrate assessed as stabilization of enzyme-DNA cleavage complex by measuring linear DNA bands at 50 to 100 uM incubated for 30 mins in presence of proteinase K/SDS and in absence of ATP by ethidium bromide staining based agarose gel electrophoresis.

The test system of assay [2] is DNA gyrase (Escherichia coli), P0AES6+P0AES4 [UNDEFINED MUTATION]. Description: Inhibition of Escherichia coli JMtacA/JMtacB DNA gyrase subunit A2B2 S83W mutant at 25 uM using relaxed pBR322 DNA as substrate incubated for 30 mins in presence of ATP by ethidium bromide staining based agarose gel electrophoresis.
Assay [3] shares this test system. Kind of assay: Inhibition of Escherichia coli JMtacA/JMtacB DNA gyrase subunit A2B2 S83W mutant at 50 uM using relaxed pBR322 DNA as substrate incubated for 30 mins in presence of ATP by ethidium bromide staining based agarose gel electrophoresis.
Assay [4] has the same test system. Description: (§1) Inhibition of Escherichia coli JMtacA/JMtacB DNA gyrase subunit A2B2 S83W mutant using relaxed pBR322 DNA as substrate incubated for 30 mins in presence of ATP by ethidium bromide staining based agarose gel electrophoresis.
Assay [5] deals with DNA gyrase (Escherichia coli, UniProt P0AES4+P0AES6). Description: Inhibition of wild type Escherichia coli DNA gyrase subunit A2B2 using relaxed pBR322 DNA as substrate incubated for 30 mins in presence of ATP by ethidium bromide staining based agarose gel electrophoresis.
For assay [6], the target named is DNA gyrase (Escherichia coli, UniProt P0AES4+P0AES6, S83W). Described as §1.
The target in assay [7] is T1, DNA gyrase (Escherichia coli). Description: Inhibition of wild type Escherichia coli DNA gyrase subunit A2B2 using supercoiled pBR322 DNA as substrate assessed as stabilization of enzyme-DNA cleavage complex by measuring linear DNA bands at 10 to 100 uM incubated for 30 mins in presence of proteinase K/SDS and in absence of ATP by ethidium bromide staining based agarose gel electrophoresis.

Assay [8] shares this target. Kind of assay: Inhibition of wild type Escherichia coli DNA gyrase subunit A2B2 at 100 uM using relaxed pBR322 DNA as substrate incubated for 30 mins in presence of ATP by ethidium bromide staining based agarose gel electrophoresis.
Assay [9] relates to DNA gyrase (Escherichia coli), P0AES6+P0AES4 [UNDEFINED MUTATION]. Description: Inhibition of Escherichia coli JMtacA/JMtacB DNA gyrase subunit A2B2 S83W mutant at 50 to 300 uM using relaxed pBR322 DNA as substrate incubated for 30 mins in presence of ATP by ethidium bromide staining based agarose gel electrophoresis.
The test system is the same in assay [10]. Kind of assay: Inhibition of Escherichia coli JMtacA/JMtacB DNA gyrase subunit A2B2 S83W mutant at 100 uM using relaxed pBR322 DNA as substrate incubated for 30 mins in presence of ATP by ethidium bromide staining based agarose gel electrophoresis.
Assay [11] deals with T1, DNA gyrase (Escherichia coli). Description: Inhibition of wild type Escherichia coli DNA gyrase subunit A2B2 using supercoiled pBR322 DNA as substrate assessed as stabilization of enzyme-DNA cleavage complex by measuring linear DNA bands at 100 uM incubated for 30 mins in presence of proteinase K/SDS and in absence of ATP by ethidium bromide staining based agarose gel electrophoresis.

The target is the same in assay [12]. Kind of assay: Inhibition of wild type Escherichia coli DNA gyrase subunit A2B2 using supercoiled pBR322 DNA as substrate assessed as stabilization of enzyme-DNA cleavage complex by measuring linear DNA bands at 1 uM incubated for 30 mins in presence of proteinase K/SDS and in absence of ATP by ethidium bromide staining based agarose gel electrophoresis.

For the compound `O=C(O)CCCCCCCCC(=O)N1CCN(c2cc3c(cc2F)c(=O)c(C(=O)O)cn3C2CC2)CC1`, the inhibition entry in assay [1] was “Active”. Moreover, the inhibition result in assay [2] is “inactive”.

For `CC(=O)Nc1cc2ccccc2oc1=O`, in assay [3], the inhibition entry was “inactive”.

For `CCOC(=O)c1cn(C2CC2)c2cc(N3CCNCC3)c(F)cc2c1=O` [CIPROFLOXACIN ETHYL ESTER], the inhibition result in assay [4] is “Active”. Further, the IC50 in [5] stood at 10 µM.

Turning to `CC(=O)O[C@@H]1[C@@H](C)O[C@@H](c2ccc3c(c2O)[C@@H](O)[C@]24O[C@@]2(C3=O)[C@@]2(O)C(=O)C=C(C)C[C@@]2(O)C[C@@H]4O)C[C@H]1OC(=O)/C=C/C=C/C=C/C=C/C(=O)O`, in assay [6], the IC50 came to 50 µM.

On to `O=C(CCCCCCCCC(=O)N1CCN(c2cc3c(cc2F)c(=O)c(C(=O)O)cn3C2CC2)CC1)Nc1cc2ccccc2oc1=O`, for which the IC50 in [6] was 3 µM. In addition, the inhibition result in assay [7] was “Active”.

With `CCOC(=O)c1cn(C2CC2)c2cc(N3CCN(C(=O)CCCCCCCCC(=O)OC)CC3)c(F)cc2c1=O`, the inhibition result in assay [4] and in assay [8] was “inactive” in each case.

Take `Nc1cc2ccccc2oc1=O`: the inhibition result in [9] is “inactive”.

For `O=C(CCCCCCCCC(=O)N1CCN(c2cc3c(cc2F)c(=O)c(C(=O)O)cn3C2CC2)CC1)Nc1ccccc1`, the inhibition result in assay [10] was “inactive”. In addition, in assay [11], the inhibition entry was “Active”.

Regarding `CCOC(=O)c1cn(C2CC2)c2cc(N3CCN(C(=O)CCCCCCCCC(=O)Nc4ccccc4)CC3)c(F)cc2c1=O`, the inhibition entry in assay [4] and in assay [8] was “inactive” each time.

For the compound `CC(=O)O[C@@H]1[C@@H](C)O[C@@H](c2ccc3c(c2O)[C@@H](O)[C@]24O[C@@]2(C3=O)[C@@]2(O)C(=O)C=C(C)C[C@@]2(O)C[C@@H]4O)C[C@H]1OC(=O)/C=C/C=C/C=C/C=C/C(=O)Nc1c(O)c2ccc(O)c(Cl)c2oc1=O`, in assay [12], the inhibition entry is “inactive”.

In the case of `CCOC(=O)c1cn(C2CC2)c2cc(N3CCN(C(=O)CCCCCCCCC(=O)Nc4cc5ccccc5oc4=O)CC3)c(F)cc2c1=O`, the inhibition entry in [4] and in [8] was “inactive” throughout.

On to `COC(=O)/C=C/C=C/C=C/C=C/C(=O)Nc1c(O)c2ccc(O)c(Cl)c2oc1=O`, for which the IC50 in assay [6] was found to be 70 µM.
